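Dose response: 5 concentrations. Exposure: 48 h. Format: 96-well plates. Endpoint: linear interpolation; highest concentration if not reached. TGI marks complete inhibition of growth.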
How the values were obtained:
Assay in all cases: NCI anticancer screen, dose series, 48 h
UACC-257 melanoma = test system: UACC-257 melanoma
T-47D breast = test system: T-47D breast
KM12 colon = test system: KM12 colon
NCI-H460 lung = test system: NCI-H460 lung
SNB-75 CNS = test system: SNB-75 CNS
U251 CNS = test system: U251 CNS
SNB-19 CNS = test system: SNB-19 CNS
MDA-MB-231 breast = test system: MDA-MB-231 breast
A498 renal = test system: A498 renal
OVCAR-4 ovarian = test system: OVCAR-4 ovarian
NCI/ADR-RES ovarian = test system: NCI/ADR-RES ovarian

SMILES | TGI (UACC-257 melanoma) | TGI (T-47D breast) | TGI (KM12 colon) | TGI (NCI-H460 lung) | TGI (SNB-75 CNS) | TGI (U251 CNS) | TGI (SNB-19 CNS) | TGI (MDA-MB-231 breast) | TGI (A498 renal) | TGI (OVCAR-4 ovarian) | TGI (NCI/ADR-RES ovarian)
CC1C(c2ccccc2O)c2cc3c(cc2OC1N1CCOCC1)OCO3 (stereo unspecified) | 47 µM | > 100 µM | 91.6 µM | 49.2 µM | 91.3 µM | 64.7 µM | > 100 µM | 73.9 µM | 52.1 µM | – | –
CN(C(=O)c1ccc(OCCCC(=O)O)c(Cl)c1Cl)C1CCCC1 | > 100 µM | – | > 100 µM | > 100 µM | > 100 µM | > 100 µM | > 100 µM | – | > 100 µM | > 100 µM | > 100 µM
COc1ccc(C(=O)/C=C/c2ccc(OCC(=N)N)cc2)cc1 | 38.1 µM | 26.5 µM | 25.8 µM | – | 20.3 µM | 27.7 µM | 29.2 µM | 27.8 µM | 27.9 µM | 30.5 µM | 72 µM
O=C1NC(=S)NC(=O)C1=C/C=C/c1ccc([N+](=O)[O-])cc1 | 30.8 µM | 71.4 µM | > 100 µM | 54.3 µM | 35.2 µM | 19.6 µM | 34 µM | 35.5 µM | – | 36.1 µM | 46.8 µM
CCOC(=O)C1(Br)S(=O)(=O)OCCOS1(=O)=O | > 100 µM | – | – | > 100 µM | > 100 µM | > 100 µM | > 100 µM | – | > 100 µM | > 100 µM | –
CC1(C)OC(=O)C(Cc2ccccc2)(Cc2ccccc2)C(=O)O1 | > 100 µM | > 100 µM | > 100 µM | > 100 µM | > 100 µM | > 100 µM | – | > 100 µM | – | > 100 µM | > 100 µM
O=c1ccnc2ccc3n[nH][nH]c3c12 | > 100 µM | – | > 100 µM | > 100 µM | > 100 µM | > 100 µM | > 100 µM | – | > 100 µM | > 100 µM | –
O=C(NCCCN1CCN(CCCNC(=O)Nc2cccc3ccccc23)CC1)Nc1cccc2ccccc12 | 25.9 µM | 32.1 µM | 43.3 µM | – | 36.5 µM | 18.9 µM | 48.4 µM | 8.21 µM | 30.5 µM | 44.1 µM | > 100 µM
COc1cccc(NC(=O)C(=O)C2C=CCS2(=O)=O)c1 (stereo unspecified) | > 100 µM | – | > 100 µM | > 100 µM | > 100 µM | > 100 µM | > 100 µM | – | > 100 µM | > 100 µM | –
CCOC(=O)c1cc(C2CCN(Cc3ccccc3)C2=S)c(C(=O)C=[N+]=[N-])[nH]1 (stereo unspecified) | 71.4 µM | – | > 100 µM | 64.1 µM | 91.6 µM | > 100 µM | > 100 µM | > 100 µM | > 100 µM | > 100 µM | 79.6 µM
COc1c2c(cc3c1C(=O)Cc1ccc4c(c1CN(C)CC3)OCO4)OCO2 | > 100 µM | – | > 100 µM | > 100 µM | > 100 µM | > 100 µM | > 100 µM | – | – | > 100 µM | –
N#Cc1c(O)c2ccccc2[nH]c1=O | > 100 µM | > 100 µM | > 100 µM | – | > 100 µM | > 100 µM | > 100 µM | > 100 µM | > 100 µM | > 100 µM | > 100 µM
COc1cc2c[n+](C)c3c(c2cc1OC)Cc1cc2c(cc1-3)OCO2 | > 100 µM | > 100 µM | > 100 µM | – | > 100 µM | > 100 µM | > 100 µM | > 100 µM | > 100 µM | > 100 µM | > 100 µM
CCOC(=O)C(=O)NC12CC3CC(CC(C3)C1)C2 | > 100 µM | – | > 100 µM | > 100 µM | > 100 µM | > 100 µM | > 100 µM | – | > 100 µM | > 100 µM | –
COC(=O)C1(C)NCCc2c1[nH]c1ccccc21 (stereo unspecified) | – | – | > 100 µM | – | > 100 µM | > 100 µM | > 100 µM | – | > 100 µM | > 100 µM | –
CCCN(CCC)C1=Nc2ccccc2-n2cnnc2C1 | – | – | > 100 µM | > 100 µM | – | > 100 µM | > 100 µM | – | – | > 100 µM | –
COc1ccc(/C(=N\Nc2ccccn2)c2ccccn2)cc1 | 17.4 µM | – | > 32.3 µM | 3.08 µM | 8.01 µM | 17.1 µM | > 63.9 µM | > 74.9 µM | > 100 µM | 42.9 µM | 0.0475 µM
O=C1/C(=C/c2ccc(Cl)cc2)CSC/C1=C\c1ccc(Cl)cc1 | 5.08 µM | 23.2 µM | 4.47 µM | 30.5 µM | – | 3.04 µM | 17 µM | 27.2 µM | – | 14.1 µM | > 100 µM
CN(C)c1ccc(/C=C/c2cc(-c3ccccc3)[n+](C)n2-c2ccccc2)cc1 | 26.8 µM | – | 3.07 µM | > 100 µM | 2.37 µM | > 33.8 µM | 11.3 µM | 17.2 µM | 14.5 µM | > 69.2 µM | > 100 µM
CNC(=O)NS(=O)(=O)c1ccc(C)cc1 | > 100 µM | > 100 µM | > 100 µM | > 100 µM | > 100 µM | > 100 µM | > 100 µM | > 100 µM | – | > 100 µM | > 100 µM
Cc1ccc(N2C(N)=C(C#N)C(C#N)(C#N)C2c2ccccc2)cc1 (stereo unspecified) | 30.4 µM | 21.4 µM | 33.6 µM | – | 28 µM | 31.6 µM | 34.5 µM | 25.3 µM | 35.7 µM | 26.9 µM | 36.1 µM
COc1cc(C=O)cc(O)c1O | > 100 µM | – | > 100 µM | > 100 µM | > 100 µM | > 100 µM | > 100 µM | – | – | – | –
O=[N+]([O-])c1cccc(N=Nc2c(O)ccc3ccccc23)c1 | > 100 µM | > 100 µM | > 100 µM | – | > 100 µM | > 100 µM | 75.5 µM | > 100 µM | > 100 µM | > 100 µM | > 100 µM

From PubChem BioAssay (NCI)
